Assay results taken from the supplement of paper PMC10307832.

Assays:
Assay in all cases: relative viability (nuclei count vs DMSO), 5 days (fraction); higher = more cells survive
R406 + Tozasertib = compound: COc1cc(Nc2ncc(F)c(Nc3ccc4c(n3)NC(=O)C(C)(C)O4)n2)cc(OC)c1OC [R406] + Cc1cc(Nc2cc(N3CCN(C)CC3)nc(Sc3ccc(NC(=O)C4CC4)cc3)n2)n[nH]1 [Tozasertib] (partner 0.1 µM)
How it was run: (§1)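 Relative viability equals treated-well nuclei counts divided by vehicle-well nuclei counts. Counts came from 4× images of lung cancer cell lines grown in 1536-well plates for 5 days after pin-tool dosing on the day after seeding. Dosing used one drug alone or a fixed anchor-drug dose plus five library-drug doses (not always all listed) in √10 steps, and values are medians of duplicate plates.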

Daporinad + Navitoclax = compound: O=C(/C=C/c1cccnc1)NCCCCC1CCN(C(=O)c2ccccc2)CC1 [Daporinad] + CC1(C)CCC(c2ccc(Cl)cc2)=C(CN2CCN(c3ccc(C(=O)NS(=O)(=O)c4ccc(N[C@H](CCN5CCOCC5)CSc5ccccc5)c(S(=O)(=O)C(F)(F)F)c4)cc3)CC2)C1 [Navitoclax] (partner 0.5 µM)
How it was run: as §1

Daporinad + Crizotinib = compound: O=C(/C=C/c1cccnc1)NCCCCC1CCN(C(=O)c2ccccc2)CC1 [Daporinad] + C[C@@H](Oc1cc(-c2cnn(C3CCNCC3)c2)cnc1N)c1c(Cl)ccc(F)c1Cl [Crizotinib] (partner 1 µM)
How it was run: as §1

Daporinad + Pemetrexed = compound: O=C(/C=C/c1cccnc1)NCCCCC1CCN(C(=O)c2ccccc2)CC1 [Daporinad] + Nc1nc2[nH]cc(CCc3ccc(C(=O)N[C@@H](CCC(=O)O)C(=O)O)cc3)c2c(=O)[nH]1 [Pemetrexed] (partner 0.2 µM)
How it was run: as §1

Cell Line	relative viability (R406 + Tozasertib; first compound 0.08 µM)	relative viability (R406 + Tozasertib; first compound 0.253 µM)	relative viability (R406 + Tozasertib; first compound 0.8 µM)	relative viability (R406 + Tozasertib; first compound 2.53 µM)	relative viability (R406 + Tozasertib; first compound 8 µM)	relative viability (Daporinad + Navitoclax; first compound 0.0005 µM)	relative viability (Daporinad + Navitoclax; first compound 0.001581 µM)	relative viability (Daporinad + Navitoclax; first compound 0.005 µM)	relative viability (Daporinad + Navitoclax; first compound 0.01581 µM)	relative viability (Daporinad + Crizotinib; first compound 0.0005 µM)	relative viability (Daporinad + Crizotinib; first compound 0.001581 µM)	relative viability (Daporinad + Crizotinib; first compound 0.005 µM)	relative viability (Daporinad + Crizotinib; first compound 0.01581 µM)	relative viability (Daporinad + Pemetrexed; first compound 0.0005 µM)	relative viability (Daporinad + Pemetrexed; first compound 0.001581 µM)	relative viability (Daporinad + Pemetrexed; first compound 0.005 µM)	relative viability (Daporinad + Pemetrexed; first compound 0.01581 µM)
HCC-44	0.909	0.532	0.963	0.979	0.393	1.02	0.99	1.02	0.897	0.768	0.787	0.899	0.747	0.623	0.593	0.677	0.765
HCC-827	0.421	0.463	0.45	0.386	0.233	1.12	1.03	1.05	1.08	0.963	1.01	0.936	0.931	0.295	0.268	0.281	0.256
NCI-H2342	0.494	0.644	0.491	0.469	0.479	–	–	–	–	–	–	–	–	0.782	0.739	0.862	0.819
NCI-H2347	0.537	0.671	0.682	0.458	0.347	0.926	0.887	0.885	0.779	0.841	0.892	0.826	0.775	0.441	0.402	0.472	0.454
PC-3 [JPC-3]	0.942	0.964	1.01	0.88	0.516	0.763	0.796	0.827	0.789	1	1.02	1.11	1.01	1.05	1.14	1.34	1.07
NCI-H1395	0.714	0.77	0.734	0.647	0.519	1.03	1.14	1.13	1.26	–	–	–	–	0.839	1.05	0.896	0.927
NCI-H1563	–	–	–	–	–	–	–	–	–	0.85	0.857	0.772	0.623	0.722	0.655	0.873	0.641
ABC-1	0.167	0.16	0.162	0.158	0.14	–	–	–	–	0.862	1.23	1.02	0.68	–	–	–	–
SW 900	0.49	0.584	0.459	0.515	0.44	–	–	–	–	–	–	–	–	0.486	–	0.506	0.496
A549	–	–	–	–	–	1.3	1.21	1.12	0.814	0.903	0.777	0.844	0.546	–	–	–	–
NCI-H1792	–	–	–	–	–	0.702	0.722	0.534	0.621	0.916	1.01	0.844	0.976	0.721	1.02	0.76	0.674
